Experimental data: ChEMBL document CHEMBL5126512, “Current status of carbazole hybrids as anticancer agents” (Eur J Med Chem, 2022)
Values belong to the compound of their own block, whether it stands above or below them.

Key:
HCT-116 [1] = assay: Antiproliferative activity against human HCT-116 cells assessed as cell growth inhibition measured after 72 hrs by MTT assay; type: functional, cell-based; settings: HCT-116, 72 h
MDA-MB-231 [2] = assay: Antiproliferative activity against human MDA-MB-231 cells assessed as cell growth inhibition measured after 72 hrs by MTT assay; type: functional, cell-based; settings: MDA-MB-231, 72 h
A549 [3] = assay: Antiproliferative activity against human A549 cells assessed as cell growth inhibition measured after 72 hrs by MTT assay; type: functional, cell-based; settings: A549, 72 h
[4] = Antiproliferative activity against mouse […] cells assessed as cell growth inhibition by MTT assay; type: functional, cell-based
HepG2 [5] = assay: Antiproliferative activity against human HepG2 cells assessed as cell growth inhibition by MTT assay; type: functional, cell-based
SW480 = assay: Antiproliferative activity against human SW480 cells assessed as cell growth inhibition by MTT assay; type: functional, cell-based
[6] = Antiproliferative activity against human Lu1 cells assessed as cell growth inhibition by MTT assay; type: functional, cell-based
Hs-578T = assay: Antiproliferative activity against human Hs-578T cells assessed as cell growth inhibition measured after 48 hrs by SRB assay; type: functional, cell-based
SNB-75 = assay: Antiproliferative activity against human SNB-75 cells assessed as cell growth inhibition measured after 48 hrs by SRB assay; type: functional, cell-based; settings: SNB-75, 48 h
OVCAR-4 = assay: Antiproliferative activity against human OVCAR-4 cells assessed as cell growth inhibition measured after 48 hrs by SRB assay; type: functional, cell-based; settings: OVCAR-4, 48 h
MDA-MB-231 [7] = assay: Antiproliferative activity against human MDA-MB-231 cells assessed as cell growth inhibition measured after 48 hrs by SRB assay; type: functional, cell-based; settings: for IC50: MDA-MB-231, 48 h; for GI50: MDA-MB-231, time 48 hrs
SW-620 = assay: Antiproliferative activity against human SW-620 cells assessed as cell growth inhibition measured after 48 hrs by SRB assay; type: functional, cell-based; settings: SW-620, 48 h
OVCAR-3 = assay: Antiproliferative activity against human OVCAR-3 cells assessed as cell growth inhibition measured after 48 hrs by SRB assay; type: functional, cell-based; settings: OVCAR-3, 48 h
HOP-62 = assay: Antiproliferative activity against human HOP-62 cells assessed as cell growth inhibition measured after 48 hrs by SRB assay; type: functional, cell-based; settings: HOP-62, 48 h
UO-31 = assay: Antiproliferative activity against human UO-31 cells assessed as cell growth inhibition measured after 48 hrs by SRB assay; type: functional, cell-based; settings: UO-31, 48 h
786-0 = assay: Antiproliferative activity against human 786-0 cells assessed as cell growth inhibition measured after 48 hrs by SRB assay; type: functional, cell-based; settings: 786-0, 48 h
MCF7 [8] = assay: Antiproliferative activity against human MCF7 cells assessed as cell growth inhibition measured after 48 hrs by SRB assay; type: functional, cell-based; settings: for IC50: MCF7, 48 h; for GI50: MCF7, time 48 hrs
HepG2 [9] = assay: Cytotoxicity against human HepG2 cells assessed as cell growth inhibition measured after 48 hrs by MTT assay; type: functional, cell-based; settings: HepG2, 48 h
HCT-116 [10] = assay: Cytotoxicity against human HCT-116 cells assessed as cell growth inhibition measured after 48 hrs by MTT assay; type: functional, cell-based; settings: HCT-116, 48 h
[11] = Cytotoxicity against human RPE-1 cells assessed as cell growth inhibition measured after 48 hrs by MTT assay; type: toxicity, cell-based; settings: RPE-1 (TERT-RPE1) cells
MCF7 [12] = assay: Cytotoxicity against human MCF7 cells assessed as cell growth inhibition measured after 48 hrs by MTT assay; type: functional, cell-based; settings: MCF7, 48 h
ASPC1 = assay: Anticancer activity against human ASPC1 cells assessed as cell growth inhibition measured after 72 hrs by Cell-Titre Glo luminescent cell viability assay; type: functional, cell-based; settings: ASPC1, 72 h
SW1990 = assay: Anticancer activity against human SW1990 cells assessed as cell growth inhibition measured after 72 hrs by Cell-Titre Glo luminescent cell viability assay; type: functional, cell-based; settings: SW1990, 72 h
A549 [13] = assay: Antiproliferative activity against human A549 cells assessed as cell growth inhibition by MTT assay; type: functional, cell-based
MCF7 [14] = assay: Antiproliferative activity against human MCF7 cells assessed as cell growth inhibition by MTT assay; type: functional, cell-based
COLO 205 = assay: Antiproliferative activity against human COLO 205 cells assessed as cell growth inhibition by MTT assay; type: functional, cell-based
HeLa [15] = assay: Antiproliferative activity against human HeLa cells assessed as cell growth inhibition by MTT assay; type: functional, cell-based
MDA-MB-231 [16] = assay: Antiproliferative activity against human MDA-MB-231 cells assessed as cell growth inhibition by MTT assay; type: functional, cell-based
MCF7 [17] = assay: Anticancer activity against human MCF7 cells assessed as cell growth inhibition measured after 24 hrs by MTT assay; type: functional, cell-based; settings: MCF7, 24 h
[18] = Cytotoxicity against human HFB4 cells assessed as cell growth inhibition measured after 24 hrs by MTT assay; type: toxicity, cell-based
[19] = target: Urokinase-type plasminogen activator (Homo sapiens, UniProt P00749); assay: Inhibition of urokinase plasminogen activator in human MCF7 cells measured after 24 hrs by ELISA method; type: cell-based
A549 [20] = assay: Cytotoxicity against human A549 cells assessed as cell growth inhibition measured after 24 hrs by MTT assay; type: functional, cell-based; settings: A549, 24 h, pooled result: one value given for 4 cell lines, strains, targets or settings
HepG2 [21] = assay: Cytotoxicity against human HepG2 cells assessed as cell growth inhibition measured after 72 hrs by MTT assay; type: functional, cell-based; settings: HepG2, 72 h
MCF7 [22] = assay: Cytotoxicity against human MCF7 cells assessed as cell growth inhibition measured after 72 hrs by MTT assay; type: functional, cell-based; settings: MCF7, 72 h
HeLa [23] = assay: Cytotoxicity against human HeLa cells assessed as cell growth inhibition measured after 72 hrs by MTT assay; type: functional, cell-based; settings: pooled result: one value given for 3 cell lines, strains, targets or settings
MDA-MB-231 [24] = assay: Cytotoxicity against human MDA-MB-231 cells assessed as cell growth inhibition measured after 72 hrs by MTT assay; type: functional, cell-based; settings: MDA-MB-231, 72 h

- IC50 (HCT-116 [1]): 7100 nM
- IC50 (MDA-MB-231 [2]): 7100 nM
- IC50 (A549 [3]): 7100 nM
Structure (SMILES): OC(CN1CCCCC1)Cn1c2ccc(Cl)cc2c2cc(Cl)ccc21 (stereo not drawn)

- IC50 (HepG2 [5]): 3990 nM
- IC50 (SW480): 3990 nM
Structure (SMILES): COc1cc2c(cc1C)c1ccccc1n2CC(O)CN1CCN(C)CC1 (stereo not drawn)
- IC50 [4]: 3990 nM
- IC50 [6]: 3990 nM

- IC50 (OVCAR-4): 1710 nM
- IC50 (MDA-MB-231 [7]): 1710 nM
- IC50 (SW-620): 1710 nM
- IC50 (OVCAR-3): 1710 nM
- IC50 (786-0): 1710 nM
- IC50 (MCF7 [8]): 1710 nM
Structure (SMILES): Cc1c2ccncc2c(C(=O)NCc2ccccc2)c2c1[nH]c1ccccc12
- IC50 (Hs-578T): 1710 nM
- IC50 (SNB-75): 1710 nM
- IC50 (HOP-62): 1710 nM
- IC50 (UO-31): 1710 nM

Structure (SMILES): CCn1c2ccccc2c2cc(NC(=O)c3c(N)n[nH]c3Nc3ccccc3)ccc21
- IC50 (HepG2 [9]): 2970 nM
- IC50 (HCT-116 [10]): 2970 nM
- IC50 at 48 h [11]: > 100000 nM
- IC50 (MCF7 [12]): 2970 nM

- IC50 (ASPC1): 3420 nM
- IC50 (SW1990): 3420 nM
Structure (SMILES): CCCCn1c2ccc(Br)cc2c2cc(/C=N/NC(=O)c3ccncc3)ccc21

- IC50 (HepG2 [5]): 3990 nM
- IC50 (SW480): 3990 nM
Structure (SMILES): CCN1CCN(CC(O)Cn2c3ccccc3c3cc(C)c(OC)cc32)CC1 (stereo not drawn)
- IC50 [4]: 3990 nM
- IC50 [6]: 3990 nM

Structure (SMILES): CCn1c2ccccc2c2cc(NC(=O)c3cc4cccc(OC)c4oc3=O)ccc21
- IC50 (HepG2 [9]): 900 nM
- IC50 (HCT-116 [10]): 900 nM
- IC50 at 48 h [11]: > 100000 nM
- IC50 (MCF7 [12]): 900 nM

- IC50 (OVCAR-4): 1250 nM
- IC50 (MDA-MB-231 [7]): 1250 nM
- IC50 (SW-620): 1250 nM
- IC50 (OVCAR-3): 1250 nM
- IC50 (786-0): 1250 nM
- IC50 (MCF7 [8]): 1250 nM
Structure (SMILES): Cc1c2ccncc2c(/C=C/C(C)NC=O)c2c1[nH]c1ccccc12 (stereo not drawn)
- IC50 (Hs-578T): 1250 nM
- IC50 (SNB-75): 1250 nM
- IC50 (HOP-62): 1250 nM
- IC50 (UO-31): 1250 nM

Structure (SMILES): CCn1c2ccccc2c2cc(NC(=O)c3cc4cc(Br)cc(Br)c4oc3=O)ccc21
- IC50 (HepG2 [9]): 900 nM
- IC50 (HCT-116 [10]): 900 nM
- IC50 (MCF7 [12]): 900 nM

- GI50 (MDA-MB-231 [7]): < 10000 nM
- GI50 (MCF7 [8]): < 10000 nM
Structure (SMILES): O=C(Cn1c2ccccc2c2ccccc21)NNC(c1ccc(O)cc1)N1CCNCC1 (stereo not drawn)

- IC50 (HCT-116 [1]): 7100 nM
- IC50 (MDA-MB-231 [2]): 7100 nM
- IC50 (A549 [3]): 7100 nM
Structure (SMILES): CC1CCN(CC(O)Cn2c3ccc(Cl)cc3c3cc(Cl)ccc32)CC1 (stereo not drawn)

- IC50 (A549 [13]): 100 nM
- IC50 (MCF7 [14]): 100 nM
- IC50 (COLO 205): 100 nM
Structure (SMILES): COc1ccc2[nH]c3c(C)cc(-c4cc(-c5ccc(C(F)(F)F)cc5F)nc(N)n4)c(C)c3c2c1

- IC50 (HeLa [15]): 5400 nM
- IC50 (MDA-MB-231 [16]): 5400 nM
Structure (SMILES): Oc1c(C(c2ccc(C(F)(F)F)cc2)N2CCCC2)ccc2[nH]c3ccccc3c12 (stereo not drawn)

- IC50 (MCF7 [17]): 5240 nM
- IC50 [19]: 3800 nM
Structure (SMILES): O=[N+]([O-])c1coc(C2c3[nH]c4ccccc4c3C(c3cc([N+](=O)[O-])co3)c3[nH]c4ccccc4c32)c1 (stereo not drawn)
- IC50 at 24 h [18]: 75200 nM

Structure (SMILES): COc1cc(-c2cc(-c3ccc4c(c3)c3ccccc3n4-c3nc(-c4ccc(Cl)cc4)ns3)on2)cc(OC)c1OCc1cc(-c2ccncc2)no1
- IC50 (A549 [20]): 10 nM

- IC50 (HCT-116 [1]): 7100 nM
- IC50 (MDA-MB-231 [2]): 7100 nM
- IC50 (A549 [3]): 7100 nM
Structure (SMILES): CC1CCCCN1CC(O)Cn1c2ccc(Cl)cc2c2cc(Cl)ccc21 (stereo not drawn)

Structure (SMILES): COc1cc(-c2cc(COc3c(OC)cc(-c4cc(-c5ccc6c(c5)c5ccccc5n6-c5nc(-c6ccc(Cl)cc6)ns5)on4)cc3OC)on2)cc(OC)c1OC
- IC50 (A549 [20]): 21 nM

Structure (SMILES): COc1cc(NC(=O)Nc2cc(C)c3[nH]c4ccc(Br)cc4c3c2C)cc(OC)c1OC
- IC50 (HepG2 [21]): 1930 nM
- IC50 (MCF7 [22]): 1930 nM
- IC50 (HeLa [23]): 1930 nM
- IC50 (MDA-MB-231 [24]): 1930 nM

- GI50 (MDA-MB-231 [7]): 4700 nM
- GI50 (MCF7 [8]): 8000 nM
Structure (SMILES): O=C(CCCn1c2ccc(Br)cc2c2cc(Br)ccc21)NCCN1CCNCC1
